According to ChEMBL document CHEMBL1201861, “Genomics of Drug Sensitity in Cancer screening data, Wellcome Trust Sanger Institute”:

Legend:
Assay in all cases: cells
Settings in all cases: Homo sapiens
L-363 = assay type: functional, cell-based
Description: SANGER: Inhibition of human L-363 cell growth in a cell viability assay.

HL-60 = assay type: functional, cell-based;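 further: growth inhibition of human HL-60 cells, read out with a cell viability assay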
Description: SANGER: Inhibition of human HL-60 cell growth in a cell viability assay.

HD-MY-Z = assay type: functional, cell-based;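 further: growth inhibition of HD-MY-Z cells, read out with a cell viability assay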
Description: SANGER: Inhibition of human HD-MY-Z cell growth in a cell viability assay.

IST-MES1 = assay type: functional, cell-based;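 further: growth inhibition of IST-MES1 cells, measured with a cell viability assay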
Description: SANGER: Inhibition of human IST-MES1 cell growth in a cell viability assay.

MC116 = assay type: functional, cell-based;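 further: growth inhibition of MC116 cells, read out with a cell viability assay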
Description: SANGER: Inhibition of human MC116 cell growth in a cell viability assay.

LU-134-A = assay type: functional, cell-based
Description: SANGER: Inhibition of human LU-134-A cell growth in a cell viability assay.

KS-1 = assay type: functional, cell-based;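 further: growth inhibition of KS-1 cells, read out with a cell viability assay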
Description: SANGER: Inhibition of human KS-1 cell growth in a cell viability assay.

BT-474 = assay type: functional, cell-based
Description: SANGER: Inhibition of human BT-474 cell growth in a cell viability assay.

NKM-1 = assay type: functional, cell-based;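 further: growth inhibition of NKM-1 cells, read out with a cell viability assay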
Description: SANGER: Inhibition of human NKM-1 cell growth in a cell viability assay.

HT = assay type: functional, cell-based
Description: SANGER: Inhibition of human HT cell growth in a cell viability assay.

LS-411N = assay type: functional, cell-based
SF-268 = assay type: functional, cell-based;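 further: growth inhibition of SF-268 cells determined with a cell viability assay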
Description: SANGER: Inhibition of human SF268 cell growth in a cell viability assay.

SF-126 = assay type: functional, cell-based;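 further: growth inhibition of human SF126 cells, read out with a cell viability assay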
Description: SANGER: Inhibition of human SF126 cell growth in a cell viability assay.

no-10 = assay type: functional, cell-based;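 further: growth inhibition of no-10 cells, read out with a cell viability assay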
Description: SANGER: Inhibition of human no-10 cell growth in a cell viability assay.

VA-ES-BJ = assay type: functional, cell-based;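 further: growth inhibition of the VA-ES-BJ cell line, read out by a cell viability assay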
Description: SANGER: Inhibition of human VA-ES-BJ cell growth in a cell viability assay.

BB49-HNC = assay type: functional, cell-based;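 further: cell viability assay read-out, reported as inhibition of BB49-HNC cell growth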
Description: SANGER: Inhibition of human BB49-HNC cell growth in a cell viability assay.

HC-1 = assay type: functional, cell-based;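 further: growth inhibition of HC-1 cells measured by a cell viability assay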
Description: SANGER: Inhibition of human HC-1 cell growth in a cell viability assay.

NCI-H82 = assay type: functional, cell-based;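 further: growth inhibition of NCI-H82 cells, measured with a cell viability readout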
Description: SANGER: Inhibition of human NCI-H82 cell growth in a cell viability assay.

TE-5 = assay type: functional, cell-based;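 further: inhibition of cell growth, read out by a cell viability assay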
Description: SANGER: Inhibition of human TE-5 cell growth in a cell viability assay.

NCI-H1355 = assay type: functional, cell-based;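 further: growth inhibition of human NCI-H1355 cells, read out by a cell viability assay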
Description: SANGER: Inhibition of human NCI-H1355 cell growth in a cell viability assay.

MHH-NB-11 = assay type: functional, cell-based;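 further: growth inhibition of human MHH-NB-11 cells, read out by a cell viability assay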
Description: SANGER: Inhibition of human MHH-NB-11 cell growth in a cell viability assay.

DOHH-2 = assay type: functional, cell-based;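 further: growth inhibition of human DOHH-2 cells, read out with a cell viability assay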
Description: SANGER: Inhibition of human DOHH-2 cell growth in a cell viability assay.

EC-GI-10 = assay type: functional, cell-based
Description: SANGER: Inhibition of human EC-GI-10 cell growth in a cell viability assay.

MZ2-MEL = assay type: functional, cell-based;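 further: growth inhibition of MZ2-MEL cells read out with a cell viability assay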
Description: SANGER: Inhibition of human MZ2-MEL cell growth in a cell viability assay.

CTB-1 = assay type: functional, cell-based
Description: SANGER: Inhibition of human CTB-1 cell growth in a cell viability assay.

MOLT-4 = assay type: functional, cell-based;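 further: growth inhibition of MOLT-4 cells, determined with a cell viability readout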
Description: SANGER: Inhibition of human MOLT-4 cell growth in a cell viability assay.

NCI-H747 = assay type: functional, cell-based;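 further: growth inhibition of human NCI-H747 cells, read out by a cell viability assay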
Description: SANGER: Inhibition of human NCI-H747 cell growth in a cell viability assay.

L-428 = assay type: functional, cell-based
Description: SANGER: Inhibition of human L-428 cell growth in a cell viability assay.

MFH-ino = assay type: functional, cell-based;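 further: growth inhibition of human MFH-ino cells, read out by a cell viability assay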
Description: SANGER: Inhibition of human MFH-ino cell growth in a cell viability assay.

OVCAR-4 = assay type: functional, cell-based;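 further: growth inhibition of human OVCAR-4 cells, measured with a cell viability assay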
Description: SANGER: Inhibition of human OVCAR-4 cell growth in a cell viability assay.

NMC-G1 = assay type: functional, cell-based;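 further: growth inhibition of the NMC-G1 cell line, measured with a cell viability read-out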
Description: SANGER: Inhibition of human NMC-G1 cell growth in a cell viability assay.

LAMA-84 = assay type: functional, cell-based;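 further: growth inhibition of LAMA-84 cells, read out with a cell viability assay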
Description: SANGER: Inhibition of human LAMA-84 cell growth in a cell viability assay.

EW-11 = assay type: functional, cell-based;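 further: growth inhibition of human EW-11 cells, measured with a cell viability assay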
Description: SANGER: Inhibition of human EW-11 cell growth in a cell viability assay.

NCI-H1299 = assay type: functional, cell-based;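 further: growth inhibition of human NCI-H1299 cells, read out by a cell viability assay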
Description: SANGER: Inhibition of human NCI-H1299 cell growth in a cell viability assay.

LXF-289 cell line = assay type: functional, cell-based
Description: SANGER: Inhibition of human LXF-289 cell growth in a cell viability assay.

ES7 = assay type: functional, cell-based;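 further: growth inhibition of cultured human ES7 cells, read out as cell viability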
Description: SANGER: Inhibition of human ES7 cell growth in a cell viability assay.

NOMO-1 = assay type: functional, cell-based;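 further: growth inhibition of human NOMO-1 cells measured by a cell viability assay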
Description: SANGER: Inhibition of human NOMO-1 cell growth in a cell viability assay.

EM-2 = assay type: functional, cell-based;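 further: growth inhibition of EM-2 cells, read out with a cell viability assay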
Description: SANGER: Inhibition of human EM-2 cell growth in a cell viability assay.

DSH1 = assay type: functional, cell-based;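 further: growth inhibition of human DSH1 cells, measured with a cell viability readout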
Description: SANGER: Inhibition of human DSH1 cell growth in a cell viability assay.

LS-1034 = assay type: functional, cell-based
Description: SANGER: Inhibition of human LS-1034 cell growth in a cell viability assay.

NCI-H526 = assay type: functional, cell-based;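 further: growth inhibition of the human NCI-H526 cell line, measured by a cell viability assay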
Description: SANGER: Inhibition of human NCI-H526 cell growth in a cell viability assay.

MLMA = assay type: functional, cell-based;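 further: growth inhibition of MLMA cells (human), determined through a cell viability readout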
Description: SANGER: Inhibition of human MLMA cell growth in a cell viability assay.

EW-16 = assay type: functional, cell-based;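 further: growth inhibition of human EW-16 cells, read out as cell viability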
Description: SANGER: Inhibition of human EW-16 cell growth in a cell viability assay.

NCI-H720 = assay type: functional, cell-based;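 further: growth inhibition of human NCI-H720 cells determined by a cell viability assay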
Description: SANGER: Inhibition of human NCI-H720 cell growth in a cell viability assay.

J-RT3-T3-5 = assay type: functional, cell-based;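 further: cell viability assay measuring growth inhibition of human J-RT3-T3-5 cells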
Description: SANGER: Inhibition of human J-RT3-T3-5 cell growth in a cell viability assay.

DU-4475 = assay type: functional, cell-based
Description: SANGER: Inhibition of human DU-4475 cell growth in a cell viability assay.

RS4-11 = assay type: functional, cell-based;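 further: growth inhibition of RS4-11 cells, read out by a cell viability assay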
Description: SANGER: Inhibition of human RS4-11 cell growth in a cell viability assay.

HCE-T = assay type: functional, cell-based;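 further: cell viability assay read-out, reporting inhibition of HCE-T cell growth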
Description: SANGER: Inhibition of human HCE-T cell growth in a cell viability assay.

K562 = assay type: functional, cell-based
Description: SANGER: Inhibition of human K-562 cell growth in a cell viability assay.

SH-4 = assay type: functional, cell-based;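 further: growth inhibition of SH-4 cells, read out with a cell viability assay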
Description: SANGER: Inhibition of human SH-4 cell growth in a cell viability assay.

NCI-H2126 = assay type: functional, cell-based;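 further: growth inhibition of the cancer cell line, determined with a cell viability readout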
Description: SANGER: Inhibition of human NCI-H2126 cell growth in a cell viability assay.

COLO-320-HSR = assay type: functional, cell-based;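 further: growth inhibition of COLO-320-HSR cells, determined with a cell viability assay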
Description: SANGER: Inhibition of human COLO-320-HSR cell growth in a cell viability assay.

GT3TKB = assay type: functional, cell-based;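 further: growth inhibition of the cell line, read out with a cell viability assay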
Description: SANGER: Inhibition of human GT3TKB cell growth in a cell viability assay.

LAN-6 = assay type: functional, cell-based;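 further: growth inhibition of LAN-6 cells, determined with a cell viability assay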
Description: SANGER: Inhibition of human LAN-6 cell growth in a cell viability assay.

D-263MG = assay type: functional, cell-based
Description: SANGER: Inhibition of human D-263MG cell growth in a cell viability assay.

ETK-1 = assay type: functional, cell-based;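 further: growth inhibition of human ETK-1 cells, read out with a cell viability assay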
Description: SANGER: Inhibition of human ETK-1 cell growth in a cell viability assay.

COLO-829 = assay type: functional, cell-based
Description: SANGER: Inhibition of human COLO-829 cell growth in a cell viability assay.

MV4-11 = assay type: functional, cell-based, MV-4-11;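 further: cell viability readout measuring growth inhibition of human MV-4-11 cells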
Description: SANGER: Inhibition of human MV-4-11 cell growth in a cell viability assay.

GR-ST = assay type: functional, cell-based
Description: SANGER: Inhibition of human GR-ST cell growth in a cell viability assay.

KE-37 = assay type: functional, cell-based;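 further: growth inhibition of KE-37 cells, read out with a cell viability assay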
Description: SANGER: Inhibition of human KE-37 cell growth in a cell viability assay.

C2BBe1 = assay type: functional, cell-based;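 further: growth inhibition of C2BBe1 cells, read out through a viability assay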
Description: SANGER: Inhibition of human C2BBe1 cell growth in a cell viability assay.

PSN1 = assay type: functional, cell-based;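 further: suppression of growth of human PSN1 cells, read out by a cell viability assay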
Description: SANGER: Inhibition of human PSN1 cell growth in a cell viability assay.

SW 962 = assay type: functional, cell-based
Description: SANGER: Inhibition of human SW962 cell growth in a cell viability assay.

ONS-76 = assay type: functional, cell-based
Description: SANGER: Inhibition of human ONS-76 cell growth in a cell viability assay.

ML-2 = assay type: functional, cell-based
Description: SANGER: Inhibition of human ML-2 cell growth in a cell viability assay.

LB373-MEL-D = assay type: functional, cell-based
Description: SANGER: Inhibition of human LB373-MEL-D cell growth in a cell viability assay.

Work on `CCNC(=O)c1noc(-c2cc(C(C)C)c(O)cc2O)c1-c1ccc(CN2CCOCC2)cc1` [LUMINESPIB] yielded an IC50 (L-363) of 69 nM, an IC50 (HL-60) of 18.1 nM and an IC50 (HD-MY-Z) of 144 nM. For the same compound, the IC50 (IST-MES1) was greater than 256 nM, the IC50 (MC116) was greater than 256 nM and the IC50 (LU-134-A) was 57.1 nM. For the same compound, the IC50 (KS-1) was 8.59 nM, the IC50 (BT-474) was 70.6 nM and the IC50 (NKM-1) was 5.47 nM. For the same compound, the IC50 (HT) was 226 nM, the IC50 (LS-411N) was 37.3 nM and the IC50 (SF-268) was 34 nM. It also gave an IC50 (SF-126) of 50.1 nM, an IC50 (no-10) of 30.2 nM and an IC50 (VA-ES-BJ) of 42.9 nM. For the same compound, the IC50 (BB49-HNC) was 10.8 nM, the IC50 (HC-1) was 40.7 nM and the IC50 (NCI-H82) was greater than 256 nM. For the same compound, the IC50 (TE-5) was greater than 256 nM, the IC50 (NCI-H1355) was 24 nM and the IC50 (MHH-NB-11) was 254 nM. It also gave an IC50 (DOHH-2) of 186 nM, an IC50 (EC-GI-10) greater than 256 nM and an IC50 (MZ2-MEL) of 31.8 nM. It also gave an IC50 (CTB-1) of 135 nM, an IC50 (MOLT-4) of 48 nM and an IC50 (NCI-H747) of 45.7 nM. It also gave an IC50 (L-428) of 77 nM, an IC50 (MFH-ino) of 12.9 nM and an IC50 (OVCAR-4) of 38.6 nM. For the same compound, the IC50 (NMC-G1) was 22.8 nM, the IC50 (LAMA-84) was 41.7 nM and the IC50 (EW-11) was 75.4 nM. The IC50 (NCI-H1299) was 11.5 nM, the IC50 (LXF-289 cell line) was 26.7 nM and the IC50 (ES7) was 33.7 nM. The IC50 (NOMO-1) was 71.7 nM, the IC50 (EM-2) was greater than 256 nM and the IC50 (DSH1) was 62.7 nM. For the same compound, the IC50 (LS-1034) was 41.9 nM, the IC50 (NCI-H526) was 187 nM and the IC50 (MLMA) was 46.1 nM. For the same compound, the IC50 (EW-16) was 7.49 nM, the IC50 (NCI-H720) was greater than 256 nM and the IC50 (J-RT3-T3-5) was 89.7 nM. For the same compound, the IC50 (DU-4475) was 21.5 nM, the IC50 (RS4-11) was 33.8 nM and the IC50 (HCE-T) was 28.6 nM. It also gave an IC50 (K562) of 53.9 nM, an IC50 (SH-4) of 41.4 nM and an IC50 (NCI-H2126) greater than 256 nM. It also gave an IC50 (COLO-320-HSR) of 185 nM, an IC50 (GT3TKB) of 12 nM and an IC50 (LAN-6) of 85 nM. The IC50 (D-263MG) was 56.8 nM, the IC50 (ETK-1) was 28.1 nM and the IC50 (COLO-829) was greater than 256 nM. For the same compound, the IC50 (MV4-11) was 0.558 nM, the IC50 (GR-ST) was 102 nM and the IC50 (KE-37) was 56.8 nM. It also gave an IC50 (C2BBe1) of 199 nM, an IC50 (PSN1) of 3.18 nM and an IC50 (SW 962) of 28.5 nM. The IC50 (ONS-76) was 29.5 nM, the IC50 (ML-2) was 36.7 nM and the IC50 (LB373-MEL-D) was greater than 256 nM.
`CO[C@@]12[C@H](COC(N)=O)C3=C(C(=O)C(C)=C(N)C3=O)N1C[C@@H]1N[C@@H]12` [MITOMYCIN] gave an IC50 (L-363) of 434 nM, an IC50 (HL-60) of 106 nM and an IC50 (HD-MY-Z) of 640 nM. The IC50 (IST-MES1) was 4150 nM, the IC50 (MC116) was 1420 nM and the IC50 (LU-134-A) was 46.7 nM. It also gave an IC50 (KS-1) of 364 nM, an IC50 (BT-474) of 2620 nM and an IC50 (NKM-1) of less than 62.5 nM. The IC50 (HT) was 1540 nM, the IC50 (LS-411N) was 322 nM and the IC50 (SF-268) was 171 nM. For the same compound, the IC50 (SF-126) was 1410 nM, the IC50 (no-10) was 300 nM and the IC50 (VA-ES-BJ) was 52.2 nM. The IC50 (BB49-HNC) was 353 nM, the IC50 (HC-1) was 157 nM and the IC50 (NCI-H82) was 2800 nM. It also gave an IC50 (TE-5) of 132 nM, an IC50 (NCI-H1355) of 117 nM and an IC50 (MHH-NB-11) of 193 nM. The IC50 (DOHH-2) was 93.8 nM, the IC50 (EC-GI-10) was 14900 nM and the IC50 (MZ2-MEL) was 432 nM. The IC50 (CTB-1) was 306 nM, the IC50 (MOLT-4) was less than 62.5 nM and the IC50 (NCI-H747) was 412 nM. The IC50 (L-428) was 1160 nM, the IC50 (MFH-ino) was 70.6 nM and the IC50 (OVCAR-4) was 697 nM. The IC50 (NMC-G1) was 217 nM, the IC50 (LAMA-84) was 642 nM and the IC50 (EW-11) was 513 nM. The IC50 (NCI-H1299) was 218 nM, the IC50 (LXF-289 cell line) was 55.4 nM and the IC50 (ES7) was less than 62.5 nM. The IC50 (NOMO-1) was 151 nM, the IC50 (EM-2) was 1030 nM and the IC50 (DSH1) was 96.5 nM. It also gave an IC50 (LS-1034) of 30.2 nM, an IC50 (NCI-H526) of 67.4 nM and an IC50 (MLMA) of 1310 nM. For the same compound, the IC50 (EW-16) was less than 62.5 nM, the IC50 (NCI-H720) was 1540 nM and the IC50 (J-RT3-T3-5) was 186 nM. The IC50 (DU-4475) was 47.5 nM, the IC50 (RS4-11) was 34.9 nM and the IC50 (HCE-T) was 372 nM. It also gave an IC50 (K562) of 1980 nM, an IC50 (SH-4) of 387 nM and an IC50 (NCI-H2126) of 260 nM. For the same compound, the IC50 (COLO-320-HSR) was 1080 nM, the IC50 (GT3TKB) was 318 nM and the IC50 (LAN-6) was 328 nM. It also gave an IC50 (D-263MG) of 540 nM, an IC50 (ETK-1) of 108 nM and an IC50 (COLO-829) of 2090 nM. It also gave an IC50 (MV4-11) of less than 62.5 nM, an IC50 (GR-ST) of 121 nM and an IC50 (KE-37) of less than 62.5 nM. The IC50 (C2BBe1) was 9280 nM, the IC50 (PSN1) was less than 62.5 nM and the IC50 (SW 962) was 158 nM. The IC50 (ONS-76) was 330 nM, the IC50 (ML-2) was less than 62.5 nM and the IC50 (LB373-MEL-D) was 430 nM.
